From patent publication US7799775B2, “Pyrimidine derivatives” (ASKA Pharmaceutical Co., Ltd., priority 2004, dated 2010)

What was measured:
human 5-HT3 receptor = target: T1, human 5-HT3 receptor (Homo sapiens, UniProt P46098); test: Measurement of affinity to human 5-HT3 receptor (in vitro), [3H]BRL-43694 binding; conditions: test compound 100 nmols/L, [3H]BRL-43694 0.5 nmols/L, HEK-293 cell membrane expressing human 5-HT3 receptor; for inhibition at 0.1 µM: read-out: Percent Inhibition (%) on Each Receptor's Binding at 10^−7M, 5-HT3
T1 construct: purchased BIOLINKS K.K; host or cells: HEK-293 cells (membrane preparation)
T1 sequence (P46098 24-478): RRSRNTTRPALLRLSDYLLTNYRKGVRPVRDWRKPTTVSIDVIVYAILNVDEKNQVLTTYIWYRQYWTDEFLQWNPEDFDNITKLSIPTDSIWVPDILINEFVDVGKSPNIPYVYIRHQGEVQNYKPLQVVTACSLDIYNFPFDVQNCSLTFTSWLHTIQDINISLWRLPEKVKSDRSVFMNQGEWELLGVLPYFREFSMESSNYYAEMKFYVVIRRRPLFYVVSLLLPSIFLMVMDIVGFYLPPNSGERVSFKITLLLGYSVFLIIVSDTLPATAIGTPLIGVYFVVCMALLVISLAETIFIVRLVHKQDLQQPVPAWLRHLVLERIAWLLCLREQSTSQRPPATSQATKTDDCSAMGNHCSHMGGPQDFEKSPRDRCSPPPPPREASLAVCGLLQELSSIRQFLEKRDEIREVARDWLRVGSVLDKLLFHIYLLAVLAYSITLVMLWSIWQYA
Protocol: (2) Measurement of Affinity of Each Test Compound to Human 5-HT3 Receptor (in Vitro):
HEK-293 cell membrane sample in which human 5-HT3 receptor was expressed (purchased from BIOLINKS K.K.) 0.05 mL (about 50 microassay) was added to 24.95 mL of incubation buffer solution B (an aqueous solution of a mixture of 50 mmols/L of Tris-hydrochloric acid, 5 mmols/L of magnesium chloride and 1 mmol/L of EDTA, whose pH was adjusted to 7.5 at 25° C. with 1N-aqueous sodium hydroxide solution) and homogenized, to provide a membrane sample suspension B. Separately, each test compound was made into 270 μmols/L of DMSO solution and diluted to a prescribed concentration with the incubation buffer solution B to provide a compound solution.
A piece of polypropylene tube was charged with 20 μL of [^3H]BRL-43694 (purchased from Daiichi Pure Chemicals Co., Ltd.) (The concentration of [^3H]BRL-43694 had been advancedly adjusted to render its concentration in the reaction mixture to 0.5 nmols/L.) and 20 μL of one of the compound solutions. Further 500 μL of the membrane sample suspension B was added into the tube, followed by 60 minutes' incubation at 25° C. The reaction was terminated by rapid filtration of the reaction mixture through GF/B filter which had been advancedly immersed in a solution formed by adding to the incubation buffer solution B polyethyleneimine to a concentration of 0.5%, using Brandel cell harvester. Then the filter was washed with about 5 mL of 50 mmols/L of Tris-hydrochloric acid which had been cooled to 4° C. The filter was once again washed after similar operation.
(§1) Residual radioactivity on the filter was measured with liquid scintillation counter (ALOKA CO., LTD. LSC-5100). Percent inhibition (%) of each test compound to binding of [^3H]BRL-43694 to 5-HT3 receptor at a concentration of 0.5 nmols/L, i.e., affinity of each test compound to 5-HT3 receptor, can be calculated according to the following expression. The ratio of non-specific binding was calculated by measuring the radioactivity in case of using tropisetron: (ICS 205-930) at a concentration of 10 μmols/L, with which value the measured value of each test compound was compensated.
(§2) Affinity of each test compound to 5-HT1A receptor and 5-HT3 receptor at a concentration of 100 nmols/L were as shown in the following Tables A-1 and A-2. BRL-43694 and tropisetron (ICS 205-930), which were used in measuring affinity of those compounds to 5-HT3 receptor, have the following structures: […]

human 5-HT1A receptor = target: T2, human 5-HT1A receptor (Homo sapiens, UniProt P08908); test: Affinity measurement of the compounds to human 5-HT1A receptor (in vitro), [3H]8-OH-DPAT binding; conditions: test compound 100 nmols/L, [3H]8-OH-DPAT 0.25 nmols/L, CHO cell membrane expressing human 5-HT1A receptor; for inhibition at 0.1 µM: read-out: Percent Inhibition (%) on Each Receptor's Binding at 10^−7M, 5-HT1A
T2 construct: purchased Packard Bioscience; host or cells: CHO cells (membrane preparation)
T2 sequence (P08908 1-422): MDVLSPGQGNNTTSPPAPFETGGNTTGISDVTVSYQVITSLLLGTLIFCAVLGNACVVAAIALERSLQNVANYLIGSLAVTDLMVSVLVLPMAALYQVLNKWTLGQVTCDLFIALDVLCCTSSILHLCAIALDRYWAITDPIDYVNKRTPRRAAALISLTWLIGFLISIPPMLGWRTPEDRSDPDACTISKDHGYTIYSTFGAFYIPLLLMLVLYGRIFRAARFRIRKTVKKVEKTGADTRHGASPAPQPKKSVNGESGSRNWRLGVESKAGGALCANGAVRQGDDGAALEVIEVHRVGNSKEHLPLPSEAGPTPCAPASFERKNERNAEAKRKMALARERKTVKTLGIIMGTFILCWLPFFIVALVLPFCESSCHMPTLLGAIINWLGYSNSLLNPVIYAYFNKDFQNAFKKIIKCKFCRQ
Protocol: (1) Affinity Measurement of the Compounds to Human 5-HT1A Receptor (in Vitro)
CHO cell membrane sample in which human 5-HT1A receptor was expressed (purchased from Packard Bioscience) 0.25 mL (about 50 units) was added to 24.75 mL of incubation buffer solution A (an aqueous solution of a mixture of 50 mmols/L of Tris-hydrochloric acid, 10 mmols/L of magnesium sulfate, 0.5 mmols/L of EDTA and 0.1% ascorbic acid, whose pH was adjusted to 7.4 at 27° C. with 1N-aqueous sodium hydroxide solution), and labeled as membrane sample suspension A. Separately, each test compound was made into 270 μmols/L DMSO solution and diluted to a prescribed concentration with the incubation buffer solution A, to provide a compound solution.
A piece of polypropylene tube was charged with 20 μL of [^3H]8-OH-DPAT (8-hydroxy-2-(di-n-propylamino)tetralin; purchased from Daiichi Pure Chemicals Co., Ltd.) (The concentration of the [^3H]8-OH-DPAT had been advancedly adjusted to render its concentration in the reaction mixture to 0.25 nmols/L) and 20 μL of one of the compound solutions. Further 500 μL of the membrane sample suspension A was added into the tube, followed by 60 minutes' incubation at 27° C. The reaction was terminated by rapid filtration of the reaction mixture through GF/C filter which had been advancedly immersed in a solution formed by adding to the incubation buffer solution A polyethyleneimine to a concentration of 0.3%, using Brandel cell harvester. Then the filter was washed with about 5 mL of 50 mmols/L of Tris-hydrochloric acid which had been cooled to 4° C. The filter was once again washed after similar operation.
as §1, with “(Aloka Co.,” for “(ALOKA CO., LTD.”, “[^3H]8-OH-DPAT” for “[^3H]BRL-43694”, “5-HT1A” for “5-HT3”, “0.25” for “0.5”, “8-OH-DPAT” for “tropisetron: (ICS 205-930)”
as §2

| inhibition at 0.1 µM (human 5-HT3 receptor) [%] | inhibition at 0.1 µM (human 5-HT1A receptor) [%] | Percent Inhibition (%) on Each Receptor's Binding at 10^−7M, 5-HT3 (human 5-HT3 receptor) [%] | Percent Inhibition (%) on Each Receptor's Binding at 10^−7M, 5-HT1A (human 5-HT1A receptor) [%] | SMILES |
| --- | --- | --- | --- | --- |
|  |  | 93.9 | 58.2 | COc1cc(N2CCN(CCCCc3nc4ccccc4c(=O)n3N)CC2)nc2ccccc12 [Example 4-22, 3-amino-2-[4-(4-methoxyquinolin-2-yl)piperazin-1-yl]butyl-3H-quinazolin-4-one] |
| 79.3 | 97 |  |  | Nn1c(CCCCN2CCN(c3ccc4ccccc4n3)CC2)nc2sccc2c1=O [Example 4-23, 3-amino-2-[4-(4-quinolin-2-ylpiperazin-1-yl)butyl]-3H-thieno[2,3-d]-pyrimidin-4-one] |
| 94.8 | 74 |  |  | O=c1[nH]c(NCCCN2CCN(c3ccc4ccccc4n3)CC2)nc2c1CCCC2 [Example 5-1, 2-[3-(4-quinolin-2-ylpiperazin-1-yl)propylamino]-5,6,7,8-tetrahydro-3H-quinazolin-4-one] |
| 35 | 62.1 |  |  | CC(C)n1c(CCCCN2CCN(c3ccc4ccccc4n3)CC2)nc2ccccc2c1=O [Example 7-15, 3-isopropyl-2-[4-(4-quinolin-2-ylpiperazin-1-yl)butyl]-3H-quinazolin-4-one] |
| 50.2 | 96.9 |  |  | Nn1c(CCCCN2CCN(c3ccc4ccccc4n3)CC2)nc2ccc(F)cc2c1=O [Example 4-56, 3-amino-6-fluoro-2-[4-(4-quinolin-2-ylpiperazin-1-yl)butyl]-3H-quinazolin-4-one] |
| 93.2 | 96 |  |  | CC1CCc2nc(CCCCN3CCN(c4ccc5ccccc5n4)CC3)n(C)c(=O)c2C1 (stereo not drawn) [Example 7-12, 3,6-dimethyl-2-[4-(4-quinolin-2-ylpiperazin-1-yl)butyl]-5,6,7,8-tetrahydro-3H-quinazolin-4-one] |
| 87.8 | 94.3 |  |  | Cc1ccc2nc(CCCCN3CCN(c4ccc5ccccc5n4)CC3)n(N)c(=O)c2c1 [Example 4-20, 3-amino-6-methyl-2-[4-(4-quinolin-2-ylpiperazin-1-yl)butyl]-3H-quinazolin-4-one] |
| 5.3 | 82.4 |  |  | COc1cc2nc(CCCCN3CCN(c4ccc5ccccc5n4)CC3)n(C)c(=O)c2cc1OC [Example 7-22, 6,7-dimethoxy-3-methyl-2-[4-(4-quinolin-2-ylpiperazin-1-yl)butyl]-3H-quinazolin-4-one] |

Further lines, the compound ahead of its results:

| SMILES | inhibition at 0.1 µM (human 5-HT3 receptor) [%] | inhibition at 0.1 µM (human 5-HT1A receptor) [%] | Percent Inhibition (%) on Each Receptor's Binding at 10^−7M, 5-HT3 (human 5-HT3 receptor) [%] | Percent Inhibition (%) on Each Receptor's Binding at 10^−7M, 5-HT1A (human 5-HT1A receptor) [%] |
| --- | --- | --- | --- | --- |
| Cc1sc2nc(SCCCN3CCN(c4nc5ccccc5n5cccc45)CC3)n(N)c(=O)c2c1C [Example 1-5, 3-amino-5,6-dimethyl-2-[3-(4-pyrrolo[1,2-a]quinoxalin-4-ylpiperazin-1-yl)propylthio]-3H-thieno[2,3-d]pyrimidin-4-one] | 82.6 | 85 |  |  |
| CC1CCc2c(sc3nc(SCCCN4CCN(c5ccc6ccccc6n5)CC4)n(N)c(=O)c23)C1 (stereo not drawn) [Example 1-31, 3-amino-7-methyl-2-[3-(4-quinolin-2-ylpiperazin-1-yl)propylthio]-5,6,7,8-tetrahydro-3H-benzo[4,5]thieno[2,3-d]pyrimidin-4-one] | 92.4 | 97.9 |  |  |
| CCN1CCN(c2nccc3ccccc23)CC1 [Production Example 37, 1-(4-ethylpiperazin-1-yl)isoquinoline] | 70.2 | 57.3 |  |  |
| Clc1ccc2ccnc(N3CCN4CCC[C@@H]4C3)c2c1 [Production Example 76, 7-chloro-1-((8aR)-octahydropyrrolo[1,2-a]pyrazin-2-yl)isoquinoline] | 94.4 | 96.6 |  |  |
| c1cc2occc2c(N2CCN3CCC[C@H]3C2)n1 [Production Example 105, 4-((8aS)-octahydropyrrolo[1,2-a]pyrazin-2-yl)furo[3,2-c]pyridine] | 96.4 | 72.7 |  |  |
| Cc1cc2c(N3CCNCC3)nccc2o1 [Production Example 25, 2-methylpiperazin-1-ylfuro[3,2-c]pyridine] | 65.5 | 83.2 |  |  |
| c1cc2sccc2c(N2CCN3CCCCC3C2)n1 (stereo not drawn) [Production Example 121, 4-octahydropyrido[1,2-a]pyrazin-2-ylthieno[3,2-c]pyridine] | 85.6 | 69.3 |  |  |
| Nn1c(SCCCN2CCN(c3ccc4ccccc4n3)CC2)nc2sc3c(c2c1=O)CCCC3 [Example 1-4, 3-amino-2-[3-(4-quinolin-2-ylpiperazin-1-yl)propylthio]-5,6,7,8-tetrahydro-3H-benzo[4,5]thieno[2,3-d]pyrimidin-4-one] | 93.2 | 96.6 |  |  |
| c1cc2ccsc2c(N2CCN3CCCCC3C2)n1 (stereo not drawn) [Production Example 120, 7-octahydropyrido[1,2-a]pyrazin-2-ylthieno[2,3-c]pyridine] | 99.4 | 81 |  |  |
| CCCc1cc(=O)[nH]c(SCCCN2CCN(c3ccc4ccccc4n3)CC2)n1 [Example 2-14, 6-propyl-2-[3-(4-quinolin-2-ylpiperazin-1-yl)propylthio]-3H-pyrimidin-4-one] | 51.9 | 57.7 |  |  |
